Reference: PubChem BioAssay (NCI)
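GI50 marks 50% less growth. TGI marks complete inhibition of growth.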

Legend:
Experiment in all cases: DTP human tumour cell line panel, 384-well format
[1] = tested on: EKVX NSCLC
[2] = tested on: M14 melanoma
[3] = tested on: SK-MEL-5 melanoma
[4] = tested on: RPMI-8226 leukemia
[5] = tested on: A549 NSCLC
[6] = tested on: HS 578T breast
[7] = tested on: LOX IMVI melanoma
[8] = tested on: SF-295 CNS
[9] = tested on: CAKI-1 renal
[10] = tested on: NCI-H460 NSCLC
[11] = tested on: NCI-H23 lung
[12] = tested on: HL-60(TB) leukemia
[13] = tested on: SNB-19 CNS
[14] = tested on: MDA-MB-435 melanoma
[15] = tested on: UACC-62 melanoma
[16] = tested on: DU-145 prostate
[17] = tested on: UACC-257 melanoma
[18] = tested on: KM12 colon
[19] = tested on: ACHN renal
[20] = tested on: HOP-92 NSCLC
[21] = tested on: HOP-62 NSCLC
[22] = tested on: SK-OV-3 ovarian
[23] = tested on: OVCAR-8 ovarian
[24] = tested on: SNB-75 CNS
[25] = tested on: U251 glioblastoma
[26] = tested on: OVCAR-3 ovarian
[27] = tested on: SK-MEL-28 melanoma
[28] = tested on: PC-3 prostate
[29] = tested on: SN12C renal
[30] = tested on: K-562 leukemia
[31] = tested on: IGROV1 ovarian
[32] = tested on: NCI-H226 lung
[33] = tested on: NCI-H322M lung
[34] = tested on: MOLT-4 leukemia
[35] = tested on: CCRF-CEM leukemia
[36] = tested on: BT-549 breast
[37] = tested on: RXF 393 renal
[38] = tested on: MALME-3M melanoma
[39] = tested on: HCT-116 colon
[40] = tested on: MDA-MB-468 breast
[41] = tested on: UO-31 renal
[42] = tested on: TK-10 renal
[43] = tested on: HCC-2998 colon
[44] = tested on: NCI-H522 lung
[45] = tested on: MCF7 breast
[46] = tested on: NCI/ADR-RES ovarian
[47] = tested on: HT29 colon
[48] = tested on: SW-620 colon
[49] = tested on: MDA-MB-231 breast
[50] = tested on: OVCAR-4 ovarian
[51] = tested on: 786-0 renal
[52] = tested on: T-47D breast
[53] = tested on: A498 renal
[54] = tested on: SF-539 CNS
[55] = tested on: SF-268 CNS
[56] = tested on: COLO 205 colon
[57] = tested on: HCT-15 colon

CC1(C)OCCn2c1nc1c(N3CCOCC3)nc(-c3cnc(N)nc3)nc12
GI50 [1]: 0.519 µM
TGI [1]: 4.1 µM
GI50 [2]: 0.494 µM
TGI [2]: > 100 µM
GI50 [3]: 0.519 µM
TGI [3]: 2.56 µM
GI50 [4]: 0.193 µM
TGI [4]: 0.667 µM
GI50 [5]: 0.477 µM
TGI [5]: 6.09 µM
GI50 [6]: 0.275 µM
TGI [6]: 1.35 µM
GI50 [7]: 0.556 µM
TGI [7]: 3.44 µM
GI50 [8]: 0.316 µM
TGI [8]: 2.02 µM
GI50 [9]: 0.279 µM
TGI [9]: 2.74 µM
GI50 [10]: 0.199 µM
TGI [10]: > 100 µM
GI50 [11]: 0.446 µM
TGI [11]: > 100 µM
GI50 [12]: 0.153 µM
TGI [12]: 1.91 µM
GI50 [13]: 5.61 µM
TGI [13]: > 100 µM
GI50 [14]: 1.23 µM
TGI [14]: > 100 µM
GI50 [15]: 0.556 µM
TGI [15]: 2.98 µM
GI50 [16]: 0.527 µM
TGI [16]: 9.15 µM
GI50 [17]: 1.83 µM
TGI [17]: > 100 µM
GI50 [18]: 0.834 µM
TGI [18]: > 100 µM
GI50 [19]: 0.467 µM
TGI [19]: 6.87 µM
GI50 [20]: 0.385 µM
TGI [20]: 2.89 µM
GI50 [21]: 0.771 µM
TGI [21]: > 100 µM
GI50 [22]: 0.199 µM
TGI [22]: 1.2 µM
GI50 [23]: 0.742 µM
TGI [23]: > 100 µM
GI50 [24]: 0.232 µM
TGI [24]: 2.27 µM
GI50 [25]: 2.25 µM
TGI [25]: > 100 µM
GI50 [26]: 0.513 µM
TGI [26]: 7.28 µM
GI50 [27]: 0.418 µM
TGI [27]: 5.42 µM
GI50 [28]: 0.306 µM
TGI [28]: 6.92 µM
GI50 [29]: 0.389 µM
TGI [29]: 5.49 µM
GI50 [30]: 1.95 µM
TGI [30]: > 100 µM
GI50 [31]: 0.158 µM
TGI [31]: 0.659 µM
GI50 [32]: 0.348 µM
TGI [32]: 2.9 µM
GI50 [33]: 0.458 µM
TGI [33]: 8.7 µM
GI50 [34]: 0.218 µM
TGI [34]: 1.2 µM
GI50 [35]: 0.491 µM
TGI [35]: 7.05 µM
GI50 [36]: 0.799 µM
TGI [36]: 5.59 µM
GI50 [37]: 0.758 µM
TGI [37]: 4.42 µM
GI50 [38]: 0.161 µM
TGI [38]: 0.749 µM
GI50 [39]: 0.545 µM
TGI [39]: > 100 µM
GI50 [40]: 0.399 µM
TGI [40]: 1.78 µM
GI50 [41]: 0.416 µM
TGI [41]: > 100 µM
GI50 [42]: 0.412 µM
TGI [42]: 3.68 µM
GI50 [43]: 0.885 µM
TGI [43]: > 100 µM
GI50 [44]: 0.368 µM
TGI [44]: > 100 µM
GI50 [45]: 0.0964 µM
TGI [45]: > 100 µM
GI50 [46]: 1.77 µM
TGI [46]: > 100 µM
GI50 [47]: 0.412 µM
TGI [47]: > 100 µM
GI50 [48]: 1.6 µM
TGI [48]: > 100 µM
GI50 [49]: 0.584 µM
TGI [49]: > 100 µM
GI50 [50]: 1.04 µM
TGI [50]: 5.79 µM
GI50 [51]: 1.28 µM
TGI [51]: 9.93 µM
GI50 [52]: 0.128 µM
TGI [52]: 0.638 µM
GI50 [53]: 0.314 µM
TGI [53]: 2.2 µM
GI50 [54]: 1.04 µM
TGI [54]: > 100 µM
GI50 [55]: 1.07 µM
TGI [55]: > 100 µM
GI50 [56]: 0.378 µM
TGI [56]: 9.22 µM
GI50 [57]: 0.432 µM
TGI [57]: > 100 µM
